# Data reported in patent publication US20250002529A1, “NOVEL […] COMPOUNDS, PREPARATION METHODS, COMPOSITIONS AND APPLICATIONS” (Guangzhou Anobri Pharmaceutical Co. Ltd., priority 2021, published 2025).
# Where two headings read alike, the source gives them in different places.
# Columns and labels:
# [1] = test system: SARS-CoV-2 virus; experiment: In vitro anti-SARS-CoV-2 virus assay (Vero E6 cells, viral RNA by PCR); assay type: cell-based
# [2] = assay type: in vivo, Male Wistar-Hannover rats
# [3] = Vero E6 cells, compound final concentration 100 nM, PCR of supernatant viral RNA after 2-3 days
Compound,"Inhibition rate (virus replication) [1, 3] [%]","AUC0~∞ ([2]; rats, dose 10 mg/kg, plasma) [ng·h/mL]","Cmax ([2]; rats, dose 10 mg/kg, plasma) [ng/mL]","T1/2 ([2]; rats, dose 10 mg/kg, plasma) [h]","Tmax ([2]; rats, dose 10 mg/kg, plasma) [h]","inhibition at 0.1 µM ([1]; Severe acute respiratory syndrome coronavirus 2, Vero C1008, read-out: Inhibition rate (virus replication)) [%]",Inhibition rate (virus replication) ([1]; 0.1 µM) [%],"Cmax ([2]; rat, in vivo, 10 mg/kg) [ng/mL]"
[2H]C1([2H])C[C@@H](C[C@@H](C#N)NC(=O)[C@@H]2[C@@H]3[C@H](CN2C(=O)[C@@H](NC(=O)C(F)(F)F)C(C)(C)C)C3(C)C)C(=O)N1 [Compound 1],71.5,1974,1393,3.5,2,–,–,–
"O=C(OC[C@H]1O[C@@H](OC(=O)c2cc(O)c(O)c(OC(=O)c3cc(O)c(O)c(O)c3)c2)[C@H](OC(=O)c2cc(O)c(O)c(OC(=O)c3cc(O)c(O)c(O)c3)c2)[C@@H](OC(=O)c2cc(O)c(O)c(OC(=O)c3cc(O)c(O)c(O)c3)c2)[C@@H]1OC(=O)c1cc(O)c(O)c(OC(=O)c2cc(O)c(O)c(O)c2)c1)c1cc(O)c(O)c(OC(=O)c2cc(O)c(O)c(O)c2)c1 [Control, tannic acid, reference compound]",–,–,–,–,–,54.1,–,–
PF-07321332 [reference compound],–,–,–,–,–,–,72.9,–
[2H][C@@](C#N)(C[C@@H]1CCNC1=O)NC(=O)[C@@H]1[C@@H]2[C@H](CN1C(=O)[C@@H](NC(=O)C(F)(F)F)C(C)(C)C)C2(C)C [Compound 2],73.5,2325,1480,4.2,2,–,–,–
[2H]C([2H])([2H])C(C(NC(=O)C(F)(F)F)C(=O)N1C[C@H]2[C@@H]([C@H]1C(=O)N[C@H](C#N)C[C@@H]1CCNC1=O)C2(C)C)(C([2H])([2H])[2H])C([2H])([2H])[2H] (stereo partly shown) [Compound 32],70.4,2011,1429,3.5,2,–,–,–
[2H][C@](NC(=O)C(F)(F)F)(C(=O)N1C[C@H]2[C@@H]([C@H]1C(=O)N[C@H](C#N)C[C@@H]1CCNC1=O)C2(C)C)C(C)(C)C [Compound 16],72.6,2294,–,4,2,–,–,1452
